Patent publication US20250235543A1, “MODIFIED PROTEINS AND PROTEIN DEGRADERS” (Cullgen (Shanghai), Inc., priority 2021, published 2025)

Legend:
[1] = tested on: cyclin D1; test: Cyclin D1 percentage degradation in Calu-1 cells (immunoblotting); type: cell-based; conditions: 10 μM, 16 hours
Summary of the method: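 Cells were rinsed once in cold PBS and lysed in cold RIPA buffer containing protease and phosphatase inhibitors, with gentle agitation at 4° C. for 30 min. Lysates were spun at 13,000 rpm for 10 min at 4° C., protein was measured by BCA, and samples were boiled in Laemmli buffer at 99° C. for 5 min before SDS-PAGE immunoblotting.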

[2] = target: T1, CDK4 (Homo sapiens, UniProt P11802); test: CDK4 percentage degradation in Calu-1 cells (immunoblotting); type: cell-based; conditions: Calu-1 cells, 10 μM, 16 hours; read-out: CDK4 Degradation (10 μM)
T1 construct: endogenous in cells; host or cells: Calu-1
Summary of the method: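 Cultured cells were rinsed once in cold PBS and lysed in cold RIPA buffer containing protease and phosphatase inhibitors, with gentle agitation at 4° C. for 30 min. Lysates were centrifuged at 13,000 rpm for 10 min at 4° C., and protein was quantified by BCA. Samples were then separated by SDS-PAGE, detected with ECL, and the CDK4 bands quantified in Image Lab.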

T1 sequence (P11802 2-303 limits assumed): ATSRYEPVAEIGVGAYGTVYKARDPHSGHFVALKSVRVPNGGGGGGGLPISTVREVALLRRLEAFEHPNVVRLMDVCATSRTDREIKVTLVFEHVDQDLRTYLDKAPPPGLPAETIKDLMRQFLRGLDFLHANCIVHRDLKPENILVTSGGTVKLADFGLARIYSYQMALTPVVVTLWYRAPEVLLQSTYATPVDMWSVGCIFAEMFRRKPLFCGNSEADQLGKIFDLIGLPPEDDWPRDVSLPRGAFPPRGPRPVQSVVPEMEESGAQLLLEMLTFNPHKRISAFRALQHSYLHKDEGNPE
T1 sequence (P24385 whole entry partner): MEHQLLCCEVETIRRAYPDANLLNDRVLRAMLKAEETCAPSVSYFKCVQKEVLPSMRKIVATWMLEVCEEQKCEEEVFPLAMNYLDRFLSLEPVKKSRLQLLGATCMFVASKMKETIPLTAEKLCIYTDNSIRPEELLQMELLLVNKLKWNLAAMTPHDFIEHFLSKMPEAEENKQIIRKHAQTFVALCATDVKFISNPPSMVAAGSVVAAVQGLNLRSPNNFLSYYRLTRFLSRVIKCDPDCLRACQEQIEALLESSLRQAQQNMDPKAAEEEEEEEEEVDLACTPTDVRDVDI
T1 sequence (Q16531 2-1140 limits assumed, further chain): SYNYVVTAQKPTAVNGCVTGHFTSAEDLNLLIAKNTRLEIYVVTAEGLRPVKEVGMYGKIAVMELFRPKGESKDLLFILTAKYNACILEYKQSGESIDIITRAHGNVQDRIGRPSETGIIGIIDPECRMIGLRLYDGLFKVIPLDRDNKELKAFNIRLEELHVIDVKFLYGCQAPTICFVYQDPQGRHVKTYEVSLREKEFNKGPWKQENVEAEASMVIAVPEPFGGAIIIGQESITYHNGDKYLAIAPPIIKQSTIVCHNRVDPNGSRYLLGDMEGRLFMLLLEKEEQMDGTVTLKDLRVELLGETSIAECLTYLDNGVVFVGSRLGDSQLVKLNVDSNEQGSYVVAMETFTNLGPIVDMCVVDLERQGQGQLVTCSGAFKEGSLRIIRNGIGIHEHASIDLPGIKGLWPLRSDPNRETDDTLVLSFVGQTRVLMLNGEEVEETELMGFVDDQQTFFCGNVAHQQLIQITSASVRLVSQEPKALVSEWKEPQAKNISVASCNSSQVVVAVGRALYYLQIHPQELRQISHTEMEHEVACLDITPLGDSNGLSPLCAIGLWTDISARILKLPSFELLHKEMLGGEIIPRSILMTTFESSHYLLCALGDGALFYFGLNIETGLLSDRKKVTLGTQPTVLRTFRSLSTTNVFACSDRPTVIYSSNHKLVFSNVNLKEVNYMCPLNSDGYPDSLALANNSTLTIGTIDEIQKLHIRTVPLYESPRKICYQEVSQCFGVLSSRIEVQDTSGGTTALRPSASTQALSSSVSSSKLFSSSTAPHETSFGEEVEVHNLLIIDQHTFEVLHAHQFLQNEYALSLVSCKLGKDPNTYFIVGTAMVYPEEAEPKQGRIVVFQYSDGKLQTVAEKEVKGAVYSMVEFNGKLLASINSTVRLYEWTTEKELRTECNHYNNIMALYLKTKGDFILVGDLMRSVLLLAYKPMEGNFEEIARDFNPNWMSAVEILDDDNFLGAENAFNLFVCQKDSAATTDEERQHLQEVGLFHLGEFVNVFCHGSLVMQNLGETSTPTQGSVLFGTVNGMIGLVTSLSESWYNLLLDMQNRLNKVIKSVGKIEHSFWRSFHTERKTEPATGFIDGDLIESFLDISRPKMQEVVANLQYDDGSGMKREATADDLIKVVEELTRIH

| inhibition at 10 µM [2] [%] | Compound | CyclinD1 Degradation (10 μM) [1] |
| --- | --- | --- |
| < 30 | Cc1nc(NC(=O)c2ccccc2NC(=O)CCNC(=O)CN2CCN(c3ccc(Nc4ncc(F)c(-c5cc(F)c6nc(C)n(C(C)C)c6c5)n4)nc3)CC2)sc1C [CPD-301, N-(4,5-Dimethylthiazol-2-yl)-2-(3-(2-(4-(6-((5-fluoro-4-(4-fluoro-1-isopropyl-2-methyl-1H-benzo[d]imidazol-6-yl)pyrimidin-2-yl)amino)pyridin-3-yl)piperazin-1-yl)acetamido)propanamido)benzamide] | D (protein percentage degradation < 30%) |
| < 30 | Cc1nc(NC(=O)c2ccccc2NC(=O)CCCNC(=O)CN2CCN(c3ccc(Nc4ncc(F)c(-c5cc(F)c6nc(C)n(C(C)C)c6c5)n4)nc3)CC2)sc1C [CPD-302, N-(4,5-Dimethylthiazol-2-yl)-2-(4-(2-(4-(6-((5-fluoro-4-(4-fluoro-1-isopropyl-2-methyl-1H-benzo[d]imidazol-6-yl)pyrimidin-2-yl)amino)pyridin-3-yl)piperazin-1-yl)acetamido)butanamido)benzamide] | D (protein percentage degradation < 30%) |
| < 30 | Cc1nc(NC(=O)c2ccccc2NC(=O)CCCCNC(=O)CN2CCN(c3ccc(Nc4ncc(F)c(-c5cc(F)c6nc(C)n(C(C)C)c6c5)n4)nc3)CC2)sc1C [CPD-303, N-(4,5-Dimethylthiazol-2-yl)-2-(5-(2-(4-(6-((5-fluoro-4-(4-fluoro-1-isopropyl-2-methyl-1H-benzo[d]imidazol-6-yl)pyrimidin-2-yl)amino)pyridin-3-yl)piperazin-1-yl)acetamido)pentanamido)benzamide] | D (protein percentage degradation < 30%) |
| < 30 | Cc1nc(NC(=O)c2ccccc2NC(=O)CCCCCNC(=O)CN2CCN(c3ccc(Nc4ncc(F)c(-c5cc(F)c6nc(C)n(C(C)C)c6c5)n4)nc3)CC2)sc1C [CPD-304, N-(4,5-Dimethylthiazol-2-yl)-2-(6-(2-(4-(6-((5-fluoro-4-(4-fluoro-1-isopropyl-2-methyl-1H-benzo[d]imidazol-6-yl)pyrimidin-2-yl)amino)pyridin-3-yl)piperazin-1-yl)acetamido)hexanamido)benzamide] | D (protein percentage degradation < 30%) |
| < 30 | Cc1nc(NC(=O)c2ccccc2NC(=O)CCCCCCNC(=O)CN2CCN(c3ccc(Nc4ncc(F)c(-c5cc(F)c6nc(C)n(C(C)C)c6c5)n4)nc3)CC2)sc1C [CPD-305, N-(4,5-Dimethylthiazol-2-yl)-2-(7-(2-(4-(6-((5-fluoro-4-(4-fluoro-1-isopropyl-2-methyl-1H-benzo[d]imidazol-6-yl)pyrimidin-2-yl)amino)pyridin-3-yl)piperazin-1-yl)acetamido)heptanamido)benzamide] | D (protein percentage degradation < 30%) |
| < 30 | Cc1nc(NC(=O)c2ccccc2NC(=O)CCCCCCCNC(=O)CN2CCN(c3ccc(Nc4ncc(F)c(-c5cc(F)c6nc(C)n(C(C)C)c6c5)n4)nc3)CC2)sc1C [CPD-306, N-(4,5-Dimethylthiazol-2-yl)-2-(8-(2-(4-(6-((5-fluoro-4-(4-fluoro-1-isopropyl-2-methyl-1H-benzo[d]imidazol-6-yl)pyrimidin-2-yl)amino)pyridin-3-yl)piperazin-1-yl)acetamido)octanamido)benzamide] | D (protein percentage degradation < 30%) |
| < 30 | Cc1nc(NC(=O)c2ccccc2NC(=O)CCCCCCCCNC(=O)CN2CCN(c3ccc(Nc4ncc(F)c(-c5cc(F)c6nc(C)n(C(C)C)c6c5)n4)nc3)CC2)sc1C [CPD-307, N-(4,5-Dimethylthiazol-2-yl)-2-(9-(2-(4-(6-((5-fluoro-4-(4-fluoro-1-isopropyl-2-methyl-1H-benzo[d]imidazol-6-yl)pyrimidin-2-yl)amino)pyridin-3-yl)piperazin-1-yl)acetamido)nonanamido)benzamide] | D (protein percentage degradation < 30%) |
| < 30 | Cc1nc(NC(=O)c2ccccc2NC(=O)CCOCCNC(=O)CN2CCN(c3ccc(Nc4ncc(F)c(-c5cc(F)c6nc(C)n(C(C)C)c6c5)n4)nc3)CC2)sc1C [CPD-308, N-(4,5-Dimethylthiazol-2-yl)-2-(3-(2-(2-(4-(6-((5-fluoro-4-(4-fluoro-1-isopropyl-2-methyl-1H-benzo[d]imidazol-6-yl)pyrimidin-2-yl)amino)pyridin-3-yl)piperazin-1-yl)acetamido)ethoxy)propanamido)benzamide] | B (protein percentage degradation < 80%, and >= 50%) |
| 30 to 50 | Cc1nc(NC(=O)c2ccccc2NC(=O)CCOCCOCCNC(=O)CN2CCN(c3ccc(Nc4ncc(F)c(-c5cc(F)c6nc(C)n(C(C)C)c6c5)n4)nc3)CC2)sc1C [CPD-309, N-(4,5-Dimethylthiazol-2-yl)-2-(3-(2-(2-(2-(4-(6-((5-fluoro-4-(4-fluoro-1-isopropyl-2-methyl-1H-benzo[d]imidazol-6-yl)pyrimidin-2-yl)amino)pyridin-3-yl)piperazin-1-yl)acetamido)ethoxy)ethoxy)propanamido)benzamide] | D (protein percentage degradation < 30%) |
| < 30 | Cc1nc(NC(=O)c2ccccc2NC(=O)CCOCCOCCOCCNC(=O)CN2CCN(c3ccc(Nc4ncc(F)c(-c5cc(F)c6nc(C)n(C(C)C)c6c5)n4)nc3)CC2)sc1C [CPD-310, N-(4,5-Dimethylthiazol-2-yl)-2-(1-(4-(6-((5-fluoro-4-(4-fluoro-1-isopropyl-2-methyl-1H-benzo[d]imidazol-6-yl)pyrimidin-2-yl)amino)pyridin-3-yl)piperazin-1-yl)-2-oxo-6,9,12-trioxa-3-azapentadecan-15-amido)benzamide] | A (protein percentage degradation >= 80%) |
| 30 to 50 | Cc1nc(NC(=O)c2ccccc2NC(=O)CCOCCOCCOCCOCCNC(=O)CN2CCN(c3ccc(Nc4ncc(F)c(-c5cc(F)c6nc(C)n(C(C)C)c6c5)n4)nc3)CC2)sc1C [CPD-311, N-(4,5-Dimethylthiazol-2-yl)-2-(1-(4-(6-((5-fluoro-4-(4-fluoro-1-isopropyl-2-methyl-1H-benzo[d]imidazol-6-yl)pyrimidin-2-yl)amino)pyridin-3-yl)piperazin-1-yl)-2-oxo-6,9,12,15-tetraoxa-3-azaoctadecan-18-amido)benzamide] | A (protein percentage degradation >= 80%) |
| < 30 | Cc1nc(NC(=O)c2ccccc2NC(=O)CCOCCOCCOCCOCCOCCNC(=O)CN2CCN(c3ccc(Nc4ncc(F)c(-c5cc(F)c6nc(C)n(C(C)C)c6c5)n4)nc3)CC2)sc1C [CPD-312, N-(4,5-Dimethylthiazol-2-yl)-2-(1-(4-(6-((5-fluoro-4-(4-fluoro-1-isopropyl-2-methyl-1H-benzo[d]imidazol-6-yl)pyrimidin-2-yl)amino)pyridin-3-yl)piperazin-1-yl)-2-oxo-6,9,12,15,18-pentaoxa-3-azahenicosan-21-amido)benzamide] | A (protein percentage degradation >= 80%) |
| < 30 | Cc1nc(NC(=O)c2ccccc2NC(=O)CCOCCOCCOCCOCCOCCOCCNC(=O)CN2CCN(c3ccc(Nc4ncc(F)c(-c5cc(F)c6nc(C)n(C(C)C)c6c5)n4)nc3)CC2)sc1C [CPD-313, N-(4,5-Dimethylthiazol-2-yl)-2-(1-(4-(6-((5-fluoro-4-(4-fluoro-1-isopropyl-2-methyl-1H-benzo[d]imidazol-6-yl)pyrimidin-2-yl)amino)pyridin-3-yl)piperazin-1-yl)-2-oxo-6,9,12,15,18,21-hexaoxa-3-azatetracosan-24-amido)benzamide] | A (protein percentage degradation >= 80%) |
| < 30 | Cc1nc(NC(=O)c2ccccc2NC(=O)CNC(=O)CN2CCN(c3ccc(Nc4ncc5cc6n(c5n4)C4(CCCCC4)CNC6=O)nc3)CC2)sc1C [CPD-314, N-(4,5-Dimethylthiazol-2-yl)-2-(2-(2-(4-(6-((6′-oxo-7′,8′-dihydro-6′H-spiro[cyclohexane-1,9′-pyrazino[1′,2′:1,5]pyrrolo[2,3-d]pyrimidin]-2′-yl)amino)pyridin-3-yl)piperazin-1-yl)acetamido)acetamido)benzamide] | D (protein percentage degradation < 30%) |
| < 30 | Cc1nc(NC(=O)c2ccccc2NC(=O)CCNC(=O)CN2CCN(c3ccc(Nc4ncc5cc6n(c5n4)C4(CCCCC4)CNC6=O)nc3)CC2)sc1C [CPD-315, N-(4,5-Dimethylthiazol-2-yl)-2-(3-(2-(4-(6-((6′-oxo-7′,8′-dihydro-6′H-spiro[cyclohexane-1,9′-pyrazino[1′,2′:1,5]pyrrolo[2,3-d]pyrimidin]-2′-yl)amino)pyridin-3-yl)piperazin-1-yl)acetamido)propanamido)benzamide] | D (protein percentage degradation < 30%) |
| < 30 | Cc1nc(NC(=O)c2ccccc2NC(=O)CCCNC(=O)CN2CCN(c3ccc(Nc4ncc5cc6n(c5n4)C4(CCCCC4)CNC6=O)nc3)CC2)sc1C [CPD-316, N-(4,5-Dimethylthiazol-2-yl)-2-(4-(2-(4-(6-((6′-oxo-7′,8′-dihydro-6′H-spiro[cyclohexane-1,9′-pyrazino[1′,2′:1,5]pyrrolo[2,3-d]pyrimidin]-2′-yl)amino)pyridin-3-yl)piperazin-1-yl)acetamido)butanamido)benzamide] | D (protein percentage degradation < 30%) |
